The results in this text go back to US9409864B2, “Sulfonamide TRPA1 receptor antagonists” (ARIO PHARMA LIMITED, priority 2013, dated 2016).

The term inhibition denotes the share of the control response that was lost under treatment. Low readings indicate little suppression, high ones strong suppression. Broadly, the IC50 is the point on the concentration scale where inhibition reaches its midpoint. High values mean weaker potency, low ones greater potency.

For the test, the target named is T1, native human TRPA1 receptors (Homo sapiens, UniProt O75762).
T1 construct: stably expressing native human TRPA1 receptors were used; endogenous in cells; host or cells: A549 human lung adenocarcinoma epithelial cell line
T1 sequence (O75762 whole entry): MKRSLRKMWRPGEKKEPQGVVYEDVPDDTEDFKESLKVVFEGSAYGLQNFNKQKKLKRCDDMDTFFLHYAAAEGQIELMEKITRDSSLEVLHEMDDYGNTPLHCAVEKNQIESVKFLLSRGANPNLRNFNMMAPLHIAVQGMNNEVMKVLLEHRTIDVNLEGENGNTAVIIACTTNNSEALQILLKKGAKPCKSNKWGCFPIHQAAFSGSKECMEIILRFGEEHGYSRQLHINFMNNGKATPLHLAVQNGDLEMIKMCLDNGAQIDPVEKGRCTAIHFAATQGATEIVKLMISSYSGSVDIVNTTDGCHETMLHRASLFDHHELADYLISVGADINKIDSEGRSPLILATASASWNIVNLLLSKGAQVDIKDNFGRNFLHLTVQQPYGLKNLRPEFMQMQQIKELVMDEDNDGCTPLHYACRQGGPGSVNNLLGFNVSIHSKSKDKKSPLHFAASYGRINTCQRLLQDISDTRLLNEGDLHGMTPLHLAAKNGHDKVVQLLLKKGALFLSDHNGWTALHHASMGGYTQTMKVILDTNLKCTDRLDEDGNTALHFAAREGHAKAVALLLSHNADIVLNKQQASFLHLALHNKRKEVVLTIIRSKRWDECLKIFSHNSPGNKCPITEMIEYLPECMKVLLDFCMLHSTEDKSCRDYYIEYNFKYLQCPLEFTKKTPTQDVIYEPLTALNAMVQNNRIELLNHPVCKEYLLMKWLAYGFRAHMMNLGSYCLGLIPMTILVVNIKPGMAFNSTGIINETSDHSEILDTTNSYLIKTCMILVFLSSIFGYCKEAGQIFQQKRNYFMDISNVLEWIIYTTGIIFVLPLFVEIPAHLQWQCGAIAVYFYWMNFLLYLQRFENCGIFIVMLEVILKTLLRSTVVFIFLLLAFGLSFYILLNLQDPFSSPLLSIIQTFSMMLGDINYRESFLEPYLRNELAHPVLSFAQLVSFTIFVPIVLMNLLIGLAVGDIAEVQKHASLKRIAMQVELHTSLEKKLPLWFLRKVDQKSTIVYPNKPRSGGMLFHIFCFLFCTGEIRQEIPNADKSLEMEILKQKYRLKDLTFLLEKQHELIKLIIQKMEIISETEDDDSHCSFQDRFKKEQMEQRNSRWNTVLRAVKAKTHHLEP
As to the kind of experiment: PF-4840154 (1 μM)-induced Ca2+ fluorescence measurements in A549 cell line. Type of test: cell-based. The conditions noted are these: for inhibition at 10 µM: 10 μM compound against 1 μM PF-4840154, A549 cells; for IC50: A549 cells. Here is the method: PF-4840154 (1 μM)-Induced Ca^2+ Fluorescence Measurements in A549 Cell Line
Human lung adenocarcinoma epithelial cell line (A549) stably expressing native human TRPA1 receptors were used. The cells were cultured in medium consisting of Eagle's minimal essential medium (EMEM) supplemented with 10% fetal bovine serum (FBS), penicillin (100 IU/ml), streptomycin ([…]), L-glutamine (2 mM), sodium bicarbonate (2.5 g/L) and HEPES (24 mM). Cells were kept at 37° C. in 5% CO2/humidified air. For the experiments the cells were seeded at a density of 16,000 cells/well into 96-well black, clear-bottom plates. After 24 hours incubation the cells were loaded with medium supplemented with 2.5 mM probenecid, 3 μM of the calcium sensitive fluorescent dye Fluo-4 AM and 0.01% pluronic acid, for 30 min at 37° C. Afterwards the loading solution was aspirated and 100 μl/well of assay buffer: Hank's Balanced Salt Solution (HBSS) supplemented with 2.5 mM probenecid and 500 μM Brilliant Black (Aldrich) was added. Stock solutions (100 mM) of ligands were made in Dimethyl Sulfoxide (DMSO) and stored at −20° C. Serial dilutions of ligands for experimental use were made in HBSS buffer. After placing both plates (cell culture and compound plate) into the FlexStation II (Molecular Device, Union City, Calif. 94587, US), fluorescence changes were measured. On-line additions were carried out in a volume of […]. To facilitate drug diffusion into the wells in antagonist type experiments, the studies were performed at 36.5° C. and three cycles of mixing (25 μl from each well moved up and down 3 times) were performed immediately after antagonist injection to the wells. All exemplified compounds were tested alone (to address residual agonistic activity) and against 1 μM of PF-4840154 to address inhibitory activity at the initial concentration of 10 μM. For selected examples the entire inhibitory concentration-response curves were constructed and the IC50 value calculated.
PF-4840154 (1 μM) increased [Ca^2+] in the vast majority (95%) of cultured cells which were thereby identified as TRPA1 expressing cells.

The mark [1] stands for this setting: against PF-4840154 (1 μM)-evoked [Ca2+]i mobilization.
Where [2] appears, read: against PF-4840154 (1 μM), cells printed in μM.

As to `C=C(C(=O)NCc1ccnc(-c2ccc(OC(F)(F)F)cc2)c1)N(C)S(=O)(=O)c1ccc(F)cc1` [Example 2, 2-[(4-fluorophenyl)sulfonyl-methyl-amino]-N-[[2-[4-(trifluoromethoxy)phenyl]-4-pyridyl]methyl]prop-2-enamide], at 10 µM the inhibition was 98%. The same molecule registered an IC50 under setting [1] of 0.135 µM.
The like results for `C=C(C(=O)NCc1ccnc(-c2ccc(OC(F)(F)F)cc2)c1)N(CC)S(=O)(=O)c1ccc(F)cc1` [Example 3, 2-[(4-fluorophenyl)sulfonyl-ethyl-amino]-N-[[2-[4-(trifluoromethoxy)phenyl]-4-pyridyl]methyl]prop-2-enamide] were, in that order, 95% and 0.093 µM.
On the same counts, the results for `C=C(C(=O)NCc1ccnc(-c2ccc(OC(F)(F)F)cc2)c1)N(C)S(=O)(=O)c1ccc(C)cc1` [Example 6, 2-(methyl(p-tolylsulfonyl)amino)-N-[[2-[4-(trifluoromethoxy)phenyl]-4-pyridyl]methyl]prop-2-enamide] are 100% and 0.355 µM.
On the same counts, the results for `C=C(C(=O)NCc1cccc(-c2ccc(C(F)(F)F)cc2)c1)N(CC)S(=O)(=O)c1ccc(F)cc1` [Example 8, 2-[ethyl-(4-fluorophenyl)sulfonyl-amino]-N-[[3-[4-(trifluoromethyl)phenyl]phenyl]methyl]prop-2-enamide] are 100% and 0.076 µM.
On to `C=C(C(=O)NCc1cccc(-c2ccc(C(F)(F)F)cc2)c1)N(C)S(=O)(=O)c1ccc(Cl)cc1` [Example 9, 2-[(4-chlorophenyl)sulfonyl-methyl-amino]-N-[[3-[4-(trifluoromethyl)phenyl]phenyl]methyl]prop-2-enamide], for which at 10 µM the inhibition was 98%. Moreover, under setting [1], 0.068 µM corresponded to half-maximal inhibition (IC50).
On to `C=C(C(=O)NCc1ccnc(-c2ccc(C(F)(F)F)cc2)c1)N(CC)S(=O)(=O)c1ccc(Cl)s1` [Example 12, 2-[(5-chloro-2-thienyl)sulfonyl-ethyl-amino]-N-[[2-[4-(trifluoromethyl)phenyl]-4-pyridyl]methyl]prop-2-enamide], for which the inhibition at 10 µM is 100%. Also, under setting [1], the IC50 is 0.033 µM.
Turning to `C=C(C(=O)NCc1cc(-c2ccc(C(F)(F)F)cc2)nc(N2CCCC2)c1)N(C)S(=O)(=O)c1ccc(Cl)cc1` [Example 13, 2-[(4-chlorophenyl)sulfonyl-methyl-amino]-N-[[2-pyrrolidin-1-yl-6-[4-(trifluoromethyl)phenyl]-4-pyridyl]methyl]prop-2-enamide], at 10 µM the inhibition was 99%. Inhibition under setting [1] was half-maximal at 0.182 µM (IC50).
`C=C(C(=O)NCc1cc(-c2ccc(OC(F)(F)F)cc2)nc(N2CCOCC2)c1)N(C)S(=O)(=O)c1ccc(Cl)cc1` [Example 16, 2-[(4-chlorophenyl)sulfonyl-methyl-amino]-N-[[2-morpholino-6-[4-(trifluoromethoxy)phenyl]-4-pyridyl]methyl]prop-2-enamide] registered an inhibition at 10 µM of 99%. Also, under setting [1], the IC50 turned out to be 0.457 µM.
The like results for `C=C(C(=O)NCc1cc(-c2ccc(OC(F)(F)F)cc2)nc(N2CCOCC2)c1)N(CC)S(=O)(=O)c1ccc(Cl)cc1` [Example 17, 2-[(4-chlorophenyl)sulfonyl-ethyl-amino]-N-[[2-morpholino-6-[4-(trifluoromethoxy)phenyl]-4-pyridyl]methyl]prop-2-enamide] were, in that order, 98% and 0.12 µM.
Molecule `C=C(C(=O)NCc1cc(-c2ccc(OC(F)(F)F)cc2)nc(N2CCCC2)c1)N(CC)S(=O)(=O)c1ccc(F)cc1` [Example 18, 2-[ethyl-(4-fluorophenyl)sulfonyl-amino]-N-[[2-pyrrolidin-1-yl-6-[4-(trifluoromethoxy)phenyl]-4-pyridyl]methyl]prop-2-enamide] came in with an inhibition at 10 µM of 100%. The concentration for half-maximal inhibition (IC50) under setting [1] is 0.093 µM.
On the same counts, the results for `C=C(C(=O)NCc1cc(-c2ccc(OC(F)(F)F)cc2)nc(-c2ccc(OC(F)(F)F)cc2)c1)N(C)S(=O)(=O)c1ccc(Cl)cc1` [Example 20, N-[[2,6-bis[4-(trifluoromethoxy)phenyl]-4-pyridyl]methyl]-2-[(4-chlorophenyl)sulfonyl-methyl-amino]prop-2-enamide] are 96% and 0.251 µM.
In the case of `C/C=C(/C(=O)NCc1ccnc(-c2ccc(OC(F)(F)F)cc2)c1)N(C)S(=O)(=O)c1ccc(F)cc1` [Example 21, (Z)-2-[(4-fluorophenyl)sulfonyl-methyl-amino]-N-[[2-[4-(trifluoromethoxy)phenyl]-4-pyridyl]methyl]but-2-enamide], 10 µM produced 100% inhibition. The same molecule came in with an IC50 under setting [1] of 0.323 µM.
On the same counts, the results for `C/C=C(/C(=O)NCc1ccnc(-c2ccc(OC(F)(F)F)cc2)c1)N(CC)S(=O)(=O)c1ccc(F)cc1` [Example 22, (Z)-2-[ethyl-(4-fluorophenyl)sulfonyl-amino]-N-[[2-[4-(trifluoromethoxy)phenyl]-4-pyridyl]methyl]but-2-enamide] are 97% and 0.246 µM.
On the same counts, the results for `C/C=C(/C(=O)NCc1cccc(-c2ccc(C(F)(F)F)cc2)c1)N(C)S(=O)(=O)c1ccc(Cl)cc1` [Example 23, (Z)-2-[(4-chlorophenyl)sulfonyl-methyl-amino]-N-[[3-[4-(trifluoromethyl)phenyl]phenyl]methyl]but-2-enamide] are 98% and 0.437 µM.
On the same counts, the results for `C/C=C(/C(=O)NCc1cccc(-c2ccc(C(F)(F)F)cc2)c1)N(CC)S(=O)(=O)c1ccc(Cl)cc1` [Example 24, (Z)-2-[(4-chlorophenyl)sulfonyl-ethyl-amino]-N-[[3-[4-(trifluoromethyl)phenyl]phenyl]methyl]but-2-enamide] are 97% and 0.724 µM.
`CCN(C1(C(=O)NCc2ccnc(-c3ccc(C(F)(F)F)cc3)c2)CC1)S(=O)(=O)c1ccc(F)cc1` [Example 25, 1-[ethyl-(4-fluorophenyl)sulfonyl-amino]-N-[[2-[4-(trifluoromethyl)phenyl]-4-pyridyl]methyl]cyclopropanecarboxamide] registered an inhibition at 10 µM of 100%. This molecule had an IC50 under setting [1] of 0.076 µM.
In the case of `CCN(C1(C(=O)NCc2ccnc(-c3ccc(OC(F)(F)F)cc3)c2)CC1)S(=O)(=O)c1ccc(Cl)cc1` [Example 27, 1-[(4-chlorophenyl)sulfonyl-ethyl-amino]-N-[[2-[4-(trifluoromethoxy)phenyl]-4-pyridyl]methyl]cyclopropanecarboxamide], the inhibition at 10 µM amounted to 100%. In addition, the IC50 under setting [1] was found to be 0.135 µM.
Consider `CCN(C1(C(=O)NCc2ccnc(-c3ccc(OC(F)(F)F)cc3)c2)CC1)S(=O)(=O)c1ccc(Cl)s1` [Example 28, 1-[(5-chloro-2-thienyl)sulfonyl-ethyl-amino]-N-[[2-[4-(trifluoromethoxy)phenyl]-4-pyridyl]methyl]cyclopropanecarboxamide], for which 10 µM produced 100% inhibition. The same molecule had an IC50 under setting [1] of 0.129 µM.
As for `CCN(C1(C(=O)NCc2cccc(-c3ccc(C(F)(F)F)cc3)c2)CC1)S(=O)(=O)c1ccc(F)cc1` [Example 29, 1-[ethyl-(4-fluorophenyl)sulfonyl-amino]-N-[[3-[4-(trifluoromethyl)phenyl]phenyl]methyl]cyclopropanecarboxamide], the inhibition at 10 µM worked out at 100%. The IC50 under setting [1] came out at 0.138 µM.
The like results for `CCN(C1(C(=O)NCc2cccc(-c3ccc(OC(F)(F)F)cc3)c2)CC1)S(=O)(=O)c1ccc(F)cc1` [Example 31, 1-[ethyl-(4-fluorophenyl)sulfonyl-amino]-N-[[3-[4-(trifluoromethoxy)phenyl]phenyl]methyl]cyclopropanecarboxamide] were, in that order, 100% and 0.057 µM.
Regarding `O=C(NCc1cc(-c2ccc(C(F)(F)F)cc2)nc(N2CCCC2)c1)C1(NS(=O)(=O)c2ccc(F)cc2)CC1` [Example 32, 1-[(4-fluorophenyl)sulfonylamino]-N-[[2-pyrrolidin-1-yl-6-[4-(trifluoromethyl)phenyl]-4-pyridyl]methyl] cyclopropanecarboxamide], the inhibition at 10 µM amounted to 80%. Besides, the IC50 under setting [2] was more than 4 µM.
In turn, `O=C(NCc1cc(-c2ccc(OC(F)(F)F)cc2)nc(N2CCCC2)c1)C1(NS(=O)(=O)c2ccc(F)cc2)CC1` [Example 33, 1-[(4-fluorophenyl)sulfonylamino]-N-[[2-pyrrolidin-1-yl-6-[4-(trifluoromethoxy)phenyl]-4-pyridyl]methyl]cyclopropanecarboxamide] gave an inhibition at 10 µM of 55%. The molecule further returned an IC50 under setting [2] of more than 2 µM.
